Holding throughout (type): cell-based
The test system of assay [1] is human pancreatic islets from healthy subjects (HI). Nature of the assay: Human pancreatic islet treatments and qPCR, healthy islets (HI). The settings on record: cells from normal human subjects, STS medium with IGF-1 40 ng/ml. As for the experimental part:
(§1) To investigate how the fasting mimicking conditions affect Ngn3 expression and β-cell functions in human pancreatic cells, we performed ex vivo experiments using primary human pancreatic islets (FIG. 6A). Briefly, the pancreatic islets from healthy and T1D subjects (HI and T1DI, respectively) were cultured according to the manufacturer's instructions. The cultured islets were then treated with serum from subjects enrolled in a clinical trial testing the effects of a low protein and low calorie FMD lasting 5 days (NCT02158897)^17. Serum samples were collected at baseline and at day 5 of the fasting mimicking diet in 5 subjects.
(§2) In cells from normal human subjects, these effects were reversed by IGF-1 treatment (FIG. 6G). […]
(§3) Cells were treated for 36 h with: Standard medium: Celprogen, M35002-045 for healthy islets and M35001-035 for T1D islets). […] Total RNA was extracted using RNeasy Mini kit (Qiagen) according to the manufacturer's instructions and quantified with the use of the Nanodrop system (Thermo Scientific, Waltham, Mass., USA). […] The expression level were analyzed by quantitative real-time polymerase chain reaction (PCR) on a Roche LightCycler 480II . Gene expression was quantified using the comparative Ct method.
(Real-time PCR tracks product formation cycle by cycle.)

The subject of assay [2] is human pancreatic islets from T1D subjects (T1DI). Nature of the assay: Human pancreatic islet treatments and qPCR, T1D islets (T1DI). Here is the method:
as §1, §2, §3

The next assay concerns PKA. Nature of the assay: PKA activity in human pancreatic islets. The settings on record: STS medium with IGF-1 40 ng/ml. As for the experimental part:
It also dampened the activity of mTOR, which is a key mediator of amino acid signaling (FIG. 6I). To further investigate the role of these nutrient sensing signaling pathways in regulating the expression of lineage markers (i.e. Sox2 and Ngn3), we tested the role of the Tor-S6K and PKA pathways, which function downstream of IGF-1, in the reprogramming of pancreatic cells. Human pancreatic islets cultured in standard medium were treated with rapamycin, which inhibits mTOR, and H89, which inhibits PKA. mTOR and PKA were implicated by our group and others in the regeneration of other cell types (Cheng et al., 2014; Yilmaz et al., 2012).
as §3
PKA activity was measured using the PKA kinase activity kit (Enzo Life Science, Inc. Farmingdale, N.Y., USA) according to manufacturer instructions.

As for “IGF-1: IGF1 (40 ng/ml) (ProSpec), growth factor added to STS medium”, in assay [1], the “effect on STS-induced expression of Sox2, Ngn3 and insulin” value is “reversed”. The “effect on STS-increased insulin and Sox 2 gene expression” value in assay [2] (human T1D cells, STS medium with IGF-1 40 ng/ml) is on record as “reversed”. Moreover, the “effect on STS-reduced PKA activity” value with PKA (T1D human islets) and with PKA (healthy human islets) was “reversed” each time.
Turning to `O=S(=O)(NCCNC/C=C/c1ccc(Br)cc1)c1cccc2cnccc12` [H89, reference compound], the “expression of lineage markers Sox2 and Ngn3” value in assay [2] (T1DI in standard medium, 36 h, Rapamycin 20 nM, H89 20 uM) is given as “not induced”.

The values above are taken from US10660932B2, “Drug combinations and methods to stimulate embryonic-like regeneration to treat diabetes and other diseases” (UNIVERSITY OF SOUTHERN CALIFORNIA, priority 2016, dated 2020).
